Experimental data taken from patent US20070077583A1, “Alpha enolase-directed diagnostics and therapeutics for cancer and chemotherapeutic drug resistance” (Aurelium BioPharma, Inc., priority 2005, published 2007).
“Also recorded” adds a separate entry of the source. Read-outs that look alike come from different tables or passages of the source.

Legend:
MCF-7 cells [1] = test: MTT cytotoxicity assay, MCF-7 cells transfected with α-enolase siRNA; type: cell-based, human; conditions: MCF-7 cells; for EC50 / IC50: Homo sapiens, MCF7; for IC50 / IC10: from MTT experiments; for EC50 lower in α-enolase-depleted cells vs control siRNA treated cells: on average
Method: For a typical siRNA transfection, 1 nmole of the annealed siRNA duplex was mixed with 1.4 ml of Opti-MEM reagent (Invitrogen). In another tube, […] of Oligofectamine reagent (Invitrogen, Carlsbad, Calif.) is mixed with […] of Opti-MEM. The two solutions are combined and mixed gently by inversion and incubated for 20 min. at RT. The resulting solution is added to the cultured cells drop by drop in a 10 cm dish (cells are approximately 40-50% confluent). The next day the transfected cells were trypsinized and seeded in 6 or 96-well plates and further incubated for the indicated amount of time (assay dependent) before further analysis.
To evaluate the effect of α-enolase depletion on the chemosensitivity of cells to cytotoxic agents, MTT assays were performed in breast adenocarcinoma MCF-7 cells transfected with α-enolase specific siRNAs. […] The predicted EC50 values (the effective dose of a compound responsible for a positive effect half-way between baseline and maximum net impact) for the α-enolase-depleted cells are shown in Table 3. Similarly, results using other chemotherapeutic drugs are also shown in the table indicating the sensitivity of breast cancer tissue to α-enolase depletion.

CaOV3 cells = test: MTT cytotoxicity assay, CaOV3 cells transfected with α-enolase RNAi; type: cell-based, human; conditions: for EC50: Homo sapiens, 72 hours post transfection
From the text: These observations were expanded by targeting α-enolase in the ovarian cancer cell line, CaOV3.

H460 cells = test: MTT cytotoxicity assay, H460 cells transfected with α-enolase siRNA; type: cell-based, human; conditions: for EC50: Homo sapiens
Method: To establish the effectiveness of α-enolase silencing on other cancer cell types, H460 non-small cell lung cancer cells were challenged with a chemotherapeutic drug, MTT cytotoxicity assays were carried out and survival curves plotted as shown in FIG. 17.

SW-480 cells = test: cells; type: cell-based, human; conditions: SW-480 cells; for EC50: Homo sapiens, SW480
Method: The colorectal adenocarcinoma cell line SW-480 was treated with α-enolase-directed siRNA using the procedures described above.

MDA-435 cells = test: cells; type: cell-based, human; conditions: MDA-435 cells; for EC50: Homo sapiens, MDA435
Method: Similar tests utilizing α-enolase siRNA were performed on MDA-435 breast adenocarcinoma cells. Chemosensitivity to various drugs was determined for the MDA-435 cells as described above.

PC-3 cells = test: MTT cytotoxicity assay, PC-3 cells transfected with α-enolase siRNA; type: cell-based; conditions: for EC50: Homo sapiens
A549 cells [2] = test: Clonogenic assay, A549 cells; type: cell-based, human; conditions: A549 cells vs control vectors
SKOV3 cells = test: Cytotoxicity in α-enolase siRNA transfected SKOV3 cells; conditions: data not shown
A549 cells [3] = test: MTT cytotoxicity assay, A549 cells transfected with α-enolase siRNA; conditions: for chemosensitivity of α-enolase-silenced cells (words): A549 cells; for EC50: Homo sapiens
Method: Small interfering RNA transfected cells were seeded in triplicate into 96-well plates at 5×10^3 cells/well 48 hrs post-transfection. The cells were incubated for an additional 16-24 hrs before they were exposed to increasing concentrations of cytotoxic drugs. […] Appropriate dilutions were made in the respective media for each cell line. Following addition of drugs, incubation was continued for an additional 72 hrs. Twenty-five ml of MTT dye (5 mg/ml) were added into each well and the plate was further incubated at 37° C. for 4 hrs. The dye was solubilized with 10% Triton X-100, 0.01 N HCl and further incubated at 37° C. in the dark for 30 min. Cell viability was determined by measure of absorption at 570 nm in a Wallac multiwell plate reader (PerkinElmer, Inc., Boston, Mass.). The averages of triplicate wells were plotted using the Prism software (GraphPad Software, Inc., San Diego, Calif.).
To investigate if α-enolase is broadly involved in mediating drug resistance to microtubule targeting agents, non-small cell lung cancer cell lines A549 and H460, respectively, were transfected with α-enolase siRNA and enolase expression and viability were assessed.

MCF-7 cells [4] = test: Clonogenic assay, MCF-7 cells; type: cell-based, human; conditions: MCF-7 cells
Method: Utilizing a clonogenic assay generated additional information concerning cell viability after drug-resistant cells were exposed to siRNA and chemotherapeutics. […] Taxol or Vincristine was added at IC10 or IC50 concentrations determined from MTT experiments for MCF-7 cells. […] The cells were further incubated for an additional 7 days. At the end of the incubation, the cells were stained with addition of a 0.5% Methylene Blue solution in 50% ethanol for 15 min. at RT. The staining solution was then removed and plates were dried overnight. The plates were scanned and the stained colonies were solubilized in 0.1% SDS. The absorbance of the resulting solution was determined by spectrophotometry at 660 nm.

[5] = control siRNA, 72 hrs drug, read-out: Control (EC50)
[6] = α-enolase specific siRNA, read-out: α-Enolase (EC50)
[7] = Caov-3, control, read-out: Control (EC50)
[8] = Caov-3, α-enolase specific RNAi, read-out: α-Enolase (EC50)
[9] = NCI-H460, control, read-out: Control (EC50)
[10] = NCI-H460, α-enolase specific siRNA, read-out: α-Enolase (EC50)
[11] = control, read-out: Control (EC50)
[12] = Eno-1 siRNA, read-out: Eno-1 (EC50)
[13] = Eno-1 stealth siRNA, read-out: Eno-1 ST (EC50)
[14] = control siRNA, read-out: Control (EC50)
[15] = mock transfection, read-out: Mock (EC50)
[16] = A549, read-out: α-Enolase (EC50)

| SMILES | EC50 (MCF-7 cells [1]; [5]) | IC50 (MCF-7 cells [1]) | EC50 (MCF-7 cells [1]; [6]) | sensitivity of α-enolase silenced cells (MCF-7 cells [1]) | IC10 (MCF-7 cells [1]) | EC50 lower in α-enolase-depleted cells vs control siRNA treated cells (MCF-7 cells [1]) | decrease of chemotherapeutic drug resistance by α-enolase-directed siRNA vs mock siRNA (CaOV3 cells) | EC50 (CaOV3 cells; [7]) | EC50 (CaOV3 cells; [8]) | viability of α-enolase-silenced cells under drug treatment vs control cells (H460 cells) | EC50 (H460 cells; [9]) | EC50 (H460 cells; [10]) | EC50 (SW-480 cells; [11]) | EC50 (SW-480 cells; [6]) | EC50 (MDA-435 cells; [12]) | EC50 (MDA-435 cells; [13]) | EC50 (MDA-435 cells; [14]) | EC50 (MDA-435 cells; [15]) | EC50 (PC-3 cells; [11]) | EC50 (PC-3 cells; [6]) | other results |
| --- | --- | --- | --- | --- | --- | --- | --- | --- | --- | --- | --- | --- | --- | --- | --- | --- | --- | --- | --- | --- | --- |
| CC[C@]1(O)C[C@H]2CN(CCc3c([nH]c4ccccc34)[C@@](C(=O)OC)(c3cc4c(cc3OC)N(C=O)[C@H]3[C@@](O)(C(=O)OC)[C@H](OC(C)=O)[C@]5(CC)C=CCN6CC[C@]43[C@@H]65)C2)C1 [Vincristine] | 163000 nM | 0.25 nM | 12600 nM | substantial increase in their sensitivity | 0.005 nM | 12 fold | 6 fold | 0.084 nM | 0.0108 nM | decreased the viability | 4.96 nM | 2.03 nM | 45.8 nM | 0.221 nM | 0.375 nM | 0.324 nM | 0.246 nM | 0.667 nM | 3400 nM | 1690 nM | more sensitive, enolase-depleted vs mock transfected cells (SW-480 cells): approximately 210 times; chemosensitivity of α-enolase-depleted cells (words) (SW-480 cells; listed as vincristin): greater chemosensitivity; chemosensitivity of α-enolase-depleted cells (words) (SW-480 cells; listed as vincristine): greatly enhanced chemosensitivity; sensitivity of α-enolase siRNA cells in clonogenic assay (A549 cells [2]): more sensitive; cytotoxic effect in α-enolase-depleted cells (SKOV3 cells): enhanced cytotoxic effect; chemosensitivity of α-enolase-silenced cells (words) (A549 cells [3]; listed as vincristin): significant shifts in their chemosensitivities; chemosensitivity of α-enolase-silenced cells (words) (A549 cells [3]; listed as vincristine): enhanced chemosensitivity; EC50 (A549 cells [3]; A549, read-out: Control (EC50)): 83.3 nM; EC50 (A549 cells [3]; [16]): 20 nM |
| CC(=O)O[C@H]1C(=O)[C@@]2(C)[C@H]([C@H](OC(=O)c3ccccc3)[C@]3(O)C[C@H](OC(=O)[C@H](O)[C@@H](NC(=O)c4ccccc4)c4ccccc4)C(C)=C1C3(C)C)[C@]1(OC(C)=O)CO[C@@H]1C[C@@H]2O [Taxol] | 78.4 nM | 100 nM | 7.16 nM | substantial increase in their sensitivity | 1 nM | 10 fold | 24.6 fold | 2.69 nM | 0.11 nM | greatest decreases in viability | 2.24 nM | 0.602 nM | 0.276 nM | 0.033 nM | 0.334 nM | 0.149 nM | 1.1 nM | 0.445 nM | 0.199 nM | 0.0206 nM | sensitivity of α-enolase-silenced cells (MDA-435 cells): Increases in sensitivity; enhancement in sensitivity with α-enolase silencing (PC-3 cells): 10 fold; cytotoxicity in α-enolase depleted cells in clonogenic assay (MCF-7 cells [4]): enhanced taxol cytotoxicity; sensitivity of α-enolase siRNA cells in clonogenic assay (A549 cells [2]): more sensitive; cytotoxic effect in α-enolase-depleted cells (SKOV3 cells): enhanced cytotoxic effect; chemosensitivity of α-enolase-silenced cells (words) (A549 cells [3]): enhanced chemosensitivity; also recorded: significant shifts in their chemosensitivities; EC50 (A549 cells [3]; A549, read-out: Control (EC50)): 5.94 nM; EC50 (A549 cells [3]; [16]): 3.16 nM |
